Reference: ChEMBL document CHEMBL6178010, “XPO1-Targeting Selective Inhibitors of Transcriptional Activation Suppress Graft-versus-Host Disease” (J Med Chem, 2025)

Key:
Exportin-1 = Exportin-1 (Homo sapiens, UniProt O14980); assay: Inhibition of XPO1 in PMA/ionomycin-activated human Jurkat cells expressing IL-2 promoter reporter gene assessed as suppression of IL-2 transcriptional activity incubated for 6 hrs by Bright-Glo Luciferase assay; assay type: cell-based
Jurkat = assay: Cytotoxicity against human Jurkat cells assessed as suppression of cell viability incubated for 24 hrs by CellTiter-Glo assay; assay type: functional, cell-based
XPO1 = assay: Selectivity ratio of EC50 for cytotoxicity against human Jurkat cells assessed as suppression of cell viability to EC50 for inhibition of XPO1 in PMA/ionomycin-activated human Jurkat cells expressing IL-2 promoter reporter gene assessed as suppression of IL-2 transcriptional activity; assay type: toxicity, cell-based; conditions: read-out: Ratio EC50
[1] = Metabolic stability in mouse liver microsome assessed as half life; assay type: ADME; conditions: liver microsomes
[2] = Metabolic stability in mouse liver microsome assessed as intrinsic clearance; assay type: ADME; conditions: liver microsomes, read-out: CLH

Exportin-1, sequence (O14980 whole entry): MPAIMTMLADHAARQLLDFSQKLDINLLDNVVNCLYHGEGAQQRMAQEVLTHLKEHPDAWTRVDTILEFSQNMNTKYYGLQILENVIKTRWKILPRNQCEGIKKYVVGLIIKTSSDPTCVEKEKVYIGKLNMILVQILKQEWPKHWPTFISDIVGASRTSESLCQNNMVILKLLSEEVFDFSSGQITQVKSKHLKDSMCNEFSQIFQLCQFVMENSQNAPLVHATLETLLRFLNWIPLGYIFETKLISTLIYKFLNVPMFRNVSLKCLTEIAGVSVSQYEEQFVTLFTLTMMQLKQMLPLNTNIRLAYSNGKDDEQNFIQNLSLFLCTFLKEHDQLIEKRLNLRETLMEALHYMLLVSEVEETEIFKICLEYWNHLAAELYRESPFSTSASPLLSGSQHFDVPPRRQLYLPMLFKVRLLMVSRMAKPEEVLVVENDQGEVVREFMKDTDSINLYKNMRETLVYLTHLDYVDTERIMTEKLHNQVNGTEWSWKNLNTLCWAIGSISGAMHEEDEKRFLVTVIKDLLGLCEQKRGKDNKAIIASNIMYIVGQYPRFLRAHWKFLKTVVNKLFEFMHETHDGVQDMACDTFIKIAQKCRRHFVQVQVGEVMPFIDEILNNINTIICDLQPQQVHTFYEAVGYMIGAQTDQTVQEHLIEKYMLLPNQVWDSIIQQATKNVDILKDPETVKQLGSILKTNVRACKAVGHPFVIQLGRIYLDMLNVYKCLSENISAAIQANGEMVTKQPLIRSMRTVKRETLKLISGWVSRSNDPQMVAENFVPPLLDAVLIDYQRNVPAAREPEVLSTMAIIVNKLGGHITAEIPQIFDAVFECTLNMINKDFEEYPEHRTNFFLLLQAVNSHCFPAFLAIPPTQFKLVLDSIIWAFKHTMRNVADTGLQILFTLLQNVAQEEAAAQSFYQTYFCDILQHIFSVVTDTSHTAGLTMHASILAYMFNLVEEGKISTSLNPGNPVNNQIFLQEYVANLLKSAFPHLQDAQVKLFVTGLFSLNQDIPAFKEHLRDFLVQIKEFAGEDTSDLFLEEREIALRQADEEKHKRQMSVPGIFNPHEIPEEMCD

For `CC1=CC(=O)N(N(C)c2ccc(C(F)(F)F)c(N3CCC(F)(F)CC3)n2)C1=O`, the EC50 (Exportin-1) was 9.7 nM, the EC50 (Jurkat) was 75 nM and the selectivity ratio (XPO1) was 7.7.
With `CC1=CC(=O)N(Nc2ccc(F)c(N3CC(F)(F)C3)n2)C1=O` the EC50 (Exportin-1) was 40 nM, the EC50 (Jurkat) was 232 nM and the selectivity ratio (XPO1) was 5.8.
`CC1=CC(=O)N(Nc2ccc(C(F)(F)F)c(-c3ccnn3C)n2)C1=O` showed an EC50 (Exportin-1) of 724 nM, an EC50 (Jurkat) of 1740 nM and a selectivity ratio (XPO1) of 2.4.
For `CNc1nc(NN2C(=O)C=C(C)C2=O)ccc1C(F)(F)F`, the EC50 (Exportin-1) was 37 nM, the EC50 (Jurkat) was 661 nM and the selectivity ratio (XPO1) was 17.9.
In the case of `CC1=CC(=O)N(Nc2ccc(C(F)(F)F)c(Cl)n2)C1=O`, the half-life [1] is reported as 26.1 min and the microsomal CLint [2] is reported as 53 µL/min/mg.
`O=C(Nc1cc(C(F)(F)F)cc(C(F)(F)F)c1)c1cnc(Cl)nc1C(F)(F)F` showed a half-life [1] of under 10 min and a microsomal CLint [2] of over 139 µL/min/mg.
With `CC1=CC(=O)N(Nc2ccc(C(F)(F)F)c(N3CCC3)n2)C1=O` the half-life [1] was under 10 min, the EC50 (Exportin-1) was 11 nM and the EC50 (Jurkat) was 434 nM. The microsomal CLint [2] was over 139 µL/min/mg and the selectivity ratio (XPO1) was 39.5.
With `CC1=CC(=O)N(Nc2cc(C(F)(F)F)c(C(F)(F)F)cn2)C1=O` the EC50 (Exportin-1) was 9.4 nM, the EC50 (Jurkat) was 190 nM and the selectivity ratio (XPO1) was 20.2.
For `CC1=CC(=O)N(Nc2ccc(C(F)(F)F)c(-n3ccnc3)n2)C1=O`, the EC50 (Exportin-1) was 447 nM, the EC50 (Jurkat) was 1900 nM and the selectivity ratio (XPO1) was 4.2.
In the case of `CC1=CC(=O)N(Nc2ccc(C(F)(F)F)c(N3CC4(CCC4)C3)n2)C1=O`, the EC50 (Exportin-1) is reported as 13 nM, the EC50 (Jurkat) is reported as 82 nM and the selectivity ratio (XPO1) is reported as 6.3.
`CC1=CC(=O)N(Nc2ccc(C(F)(F)F)c(N3CC(F)(F)C3)n2)C1=O` showed a half-life [1] of under 10 min, an EC50 (Exportin-1) of 23 nM and an EC50 (Jurkat) of 138 nM. It also gave a microsomal CLint [2] of over 139 µL/min/mg and a selectivity ratio (XPO1) of 6.
`CC1=CC(=O)N(Nc2nc(C3CC3)nn3cccc23)C1=O` showed an EC50 (Exportin-1) of 107 nM, an EC50 (Jurkat) of 347 nM and a selectivity ratio (XPO1) of 3.2.
`CC1=CC(=O)N(Nc2nc(N(C)CC3CC3)nn3cccc23)C1=O` showed a half-life [1] of 2.6 min, an EC50 (Exportin-1) of 60.4 nM and an EC50 (Jurkat) of 329 nM. For the same compound, the microsomal CLint [2] was 528 µL/min/mg and the selectivity ratio (XPO1) was 5.4.
With `CC1=CC(=O)N(Nc2nc(C3CCCC3)nn3cccc23)C1=O` the EC50 (Exportin-1) was 170 nM, the EC50 (Jurkat) was 955 nM and the selectivity ratio (XPO1) was 5.6.
For `CN(c1ccc(C(F)(F)F)c(N2CC(F)(F)C2)n1)N1CC=CC1=O`, the EC50 (Exportin-1) was 46 nM, the EC50 (Jurkat) was 82 nM and the selectivity ratio (XPO1) was 1.8.
For `CC1=CC(=O)N(Nc2ccc(C(F)(F)F)c(N3CCCC3=O)n2)C1=O`, the EC50 (Exportin-1) was 1630 nM, the EC50 (Jurkat) was 4790 nM and the selectivity ratio (XPO1) was 2.9.
For `CC1=CC(=O)N(Nc2nc(-c3ccccc3)nn3cccc23)C1=O`, the half-life [1] was 75 min, the EC50 (Exportin-1) was 66.2 nM and the EC50 (Jurkat) was 410 nM. The microsomal CLint [2] was 19 µL/min/mg and the selectivity ratio (XPO1) was 6.2.
With `CC1=CC(=O)N(N(C)c2nc(N3CCCC(F)(F)C3)nn3cccc23)C1=O` the EC50 (Exportin-1) was 209 nM, the EC50 (Jurkat) was 4290 nM and the selectivity ratio (XPO1) was 20.5.
For `CC1=CC(=O)N(Nc2nc(Cl)c(C(F)(F)F)cc2F)C1=O`, the half-life [1] was 11.4 min, the EC50 (Exportin-1) was 9 nM and the EC50 (Jurkat) was 30 nM. For the same compound, the microsomal CLint [2] was 121 µL/min/mg and the selectivity ratio (XPO1) was 3.3.
In the case of `CC1=CC(=O)N(Nc2nc(N3CCCC(F)(F)C3)nn3cccc23)C1=O`, the EC50 (Exportin-1) is reported as 222 nM, the EC50 (Jurkat) is reported as 832 nM and the selectivity ratio (XPO1) is reported as 3.7.
`CC1=CC(=O)N(Nc2ccc(C(F)(F)F)c(N3CCCC3)n2)C1=O` gave a half-life [1] of under 10 min, an EC50 (Exportin-1) of 2 nM and an EC50 (Jurkat) of 92 nM. It also gave a microsomal CLint [2] of over 139 µL/min/mg and a selectivity ratio (XPO1) of 46.
With `COCC#Cc1cc(NN2C(=O)C=C(C)C2=O)cc(C(F)(F)F)c1` the EC50 (Exportin-1) was 61 nM, the EC50 (Jurkat) was 696 nM and the selectivity ratio (XPO1) was 11.4.
Work on `CC1=CC(=O)N(Nc2nc(Cl)nn3cccc23)C1=O` yielded an EC50 (Exportin-1) of 76 nM, an EC50 (Jurkat) of 813 nM and a selectivity ratio (XPO1) of 10.7.
`CC1=CC(=O)N(N(C)c2nc(N3CCCCC3)nn3cccc23)C1=O` showed an EC50 (Exportin-1) of 61.5 nM, an EC50 (Jurkat) of 386 nM and a selectivity ratio (XPO1) of 6.3.
`CC1=CC(=O)N(Nc2cc(C(F)(F)F)cc(N3CCCC3)n2)C1=O` gave an EC50 (Exportin-1) of 4.7 nM, an EC50 (Jurkat) of 26 nM and a selectivity ratio (XPO1) of 5.5.
`CC1=CC(=O)N(Nc2ncc(C(F)(F)F)c(Cl)n2)C1=O` showed a half-life [1] of 19.9 min, an EC50 (Exportin-1) of 156 nM and an EC50 (Jurkat) of 338 nM. For the same compound, the microsomal CLint [2] was 70 µL/min/mg and the selectivity ratio (XPO1) was 2.2.
With `CC1=CC(=O)N(Nc2nc(N3CCCCC3)nn3cccc23)C1=O` the EC50 (Exportin-1) was 30.1 nM, the EC50 (Jurkat) was 148 nM and the selectivity ratio (XPO1) was 4.9.
In the case of `CC1=CC(=O)N(Nc2nc(-c3ccnn3C)nn3cccc23)C1=O`, the EC50 (Exportin-1) is reported as 251 nM, the EC50 (Jurkat) is reported as 1320 nM and the selectivity ratio (XPO1) is reported as 5.3.
In the case of `CC1=CC(=O)N(N(C)c2nc(N(C)CC3CC3)nn3cccc23)C1=O`, the half-life [1] is reported as 8.5 min, the EC50 (Exportin-1) is reported as 29.1 nM and the EC50 (Jurkat) is reported as 187 nM. The microsomal CLint [2] was 163 µL/min/mg and the selectivity ratio (XPO1) was 6.4.
`CC1=CC(=O)N(Nc2cc(N3CC(F)(F)C3)c(C(F)(F)F)cn2)C1=O` showed an EC50 (Exportin-1) of 60 nM, an EC50 (Jurkat) of 770 nM and a selectivity ratio (XPO1) of 12.8.
In the case of `CC1=CC(=O)N(Nc2cc(C(F)(F)F)cc(C(F)(F)F)n2)C1=O`, the EC50 (Exportin-1) is reported as 18 nM and the EC50 (Jurkat) is reported as 91 nM.
Compound `CC1=CC(=O)N(N(C)c2nc(N(C)C3CCCC3)nn3cccc23)C1=O` has an EC50 (Exportin-1) of 95.7 nM, an EC50 (Jurkat) of 418 nM and a selectivity ratio (XPO1) of 4.4.
`CC1=CC(=O)N(N(C)c2ccc(C(F)(F)F)c(N3CC(F)(F)C3)n2)C1=O` showed an EC50 (Exportin-1) of 7.1 nM, an EC50 (Jurkat) of 47 nM and a selectivity ratio (XPO1) of 6.6.
With `CO[C@@H]1CCN(c2nc(NN3C(=O)C=C(C)C3=O)ccc2C(F)(F)F)C1` the EC50 (Exportin-1) was 25 nM, the EC50 (Jurkat) was 400 nM and the selectivity ratio (XPO1) was 16.
In the case of `CC1=CC(=O)N(N(C)c2ccc(C(F)(F)F)c(N3CCCCC3)n2)C1=O`, the EC50 (Exportin-1) is reported as 5.3 nM, the EC50 (Jurkat) is reported as 66 nM and the selectivity ratio (XPO1) is reported as 12.5.
Work on `CC1=CC(=O)N(Nc2ccc3cn[nH]c3n2)C1=O` yielded an EC50 (Exportin-1) of 1820 nM, an EC50 (Jurkat) of 6310 nM and a selectivity ratio (XPO1) of 3.5.
In the case of `CC1=CC(=O)N(Nc2nc(-c3cccs3)nn3cccc23)C1=O`, the EC50 (Exportin-1) is reported as 44.7 nM, the EC50 (Jurkat) is reported as 170 nM and the selectivity ratio (XPO1) is reported as 3.8.
For `CC1=C(C)C(=O)N(Nc2nc(C(F)(F)F)nn3cccc23)C1=O`, the EC50 (Exportin-1) was 963 nM, the EC50 (Jurkat) was 920 nM and the selectivity ratio (XPO1) was 0.96.
In the case of `CC1=CC(=O)N(Nc2ccc(C(F)(F)F)c(N3CC4CC(C4)C3)n2)C1=O`, the EC50 (Exportin-1) is reported as 7.3 nM, the EC50 (Jurkat) is reported as 38.1 nM and the selectivity ratio (XPO1) is reported as 5.2.
`CC1=CC(=O)N(N(C)c2ccc(C(F)(F)F)c(N3CCCCCC3)n2)C1=O` gave an EC50 (Exportin-1) of 2.5 nM, an EC50 (Jurkat) of 35.9 nM and a selectivity ratio (XPO1) of 14.4.
`CC1=CC(=O)N(Nc2nc(N3CC(F)(F)C3)nn3cccc23)C1=O` showed an EC50 (Exportin-1) of 58 nM, an EC50 (Jurkat) of 447 nM and a selectivity ratio (XPO1) of 7.7.
`CC1=CC(=O)N(Nc2nc(-c3ccno3)nn3cccc23)C1=O` showed an EC50 (Exportin-1) of 550 nM, an EC50 (Jurkat) of 5620 nM and a selectivity ratio (XPO1) of 10.2.
Compound `CC1=CC(=O)N(Nc2ccc(C(F)(F)F)c(Cl)c2)C1=O` has an EC50 (Exportin-1) of 1.5 nM, an EC50 (Jurkat) of 8.6 nM and a selectivity ratio (XPO1) of 5.7.
With `CC1=CC(=O)N(N(C)c2ccc(C(F)(F)F)c(N3CCCC(F)(F)C3)n2)C1=O` the EC50 (Exportin-1) was 11 nM, the EC50 (Jurkat) was 70.9 nM and the selectivity ratio (XPO1) was 6.4.
With `CO[C@H]1CCN(c2nc(NN3C(=O)C=C(C)C3=O)ccc2C(F)(F)F)C1` the EC50 (Exportin-1) was 20.4 nM, the EC50 (Jurkat) was 492 nM and the selectivity ratio (XPO1) was 24.1.
For `CC1=CC(=O)N(N(C)c2nc(N3CC(F)(F)C3)nn3cccc23)C1=O`, the EC50 (Exportin-1) was 250 nM, the EC50 (Jurkat) was 2250 nM and the selectivity ratio (XPO1) was 9.
For `CC1=CC(=O)N(Nc2nc(N(C)C3CCCC3)nn3cccc23)C1=O`, the EC50 (Exportin-1) was 80.2 nM, the EC50 (Jurkat) was 423 nM and the selectivity ratio (XPO1) was 5.3.
